From patent US20090118301A1, “Compositions and Methods for Treating Cancer” (Arbor Vita Corporation, priority 2007, published 2009)

How the values were obtained:
C33a cells [1] = test: TUNEL apoptosis assay, C33A; type: cell-based; conditions: 120 M (so in the source), 48 hours, flow cytometry
Procedure: (§1) To determine whether the compound 7291-0042 induces apoptosis in HPV-positive cervical cancer cell lines, HeLa cells and the HPV-negative cell line C33A were used. HeLa and C33A cells were seeded at 1-2×10^6 in 10-cm dishes and allowed to adhere and grow to 80-90% confluency. Compound 7291-0042 at a concentration of 60 μM, 80 μM, 100 μM, 120 μM, or DMSO was added to the cells 24 hours after plating and incubated for 48 hours. TUNEL assay was performed for the specific quantitation of apoptotic cells within a cell population using the DeadEnd Fluorometric TUNEL System from Promega (Madison, Wis.). Briefly, the cells were harvested by trypsinization and washed in PBS. Cells were then fixed in 4% formalin and incubated in buffer containing nucleotides and rTdT enzyme for 1 hour at 37° C. After terminating the reaction by adding EDTA, cells were washed with PBS and permeabilized with Triton X-100 and propidium iodide was added to stain all the cells. Cells were then analyzed by flow cytometery. Apoptosis signal was quantified by measuring green fluorescence of fluorescein-12-dUTP at 520±20 nm and red fluorescence of propidium iodide at >620 nm.

[2] = target: T1, MAGI-1 PDZ domain 1 (interaction with HPV E6 protein) (Homo sapiens, UniProt Q96QZ7); test: matrix/array PDZ/PL competition assay, titration, Magi1 d1; type: binding; conditions: compared with the other PDZ domains and compounds of Table 1
T1 construct: MAGI-1 PDZ domain 1 was used as a target for rational drug design
T1 sequence (Q96QZ7 472-554 limits assumed): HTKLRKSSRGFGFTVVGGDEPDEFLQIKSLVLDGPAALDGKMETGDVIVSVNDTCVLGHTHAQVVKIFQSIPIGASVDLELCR
Procedure: The best hits from in silico screening were subject to screening in a matrix/array competition assay format, i.e., assays where docking of ligands to solid phase PDZ domain in fusion proteins was assessed in the presence and absence of the small molecule competitor as described elsewhere. The compounds were screened for inhibition of the PDZ/PL interactions.
The small molecules were considered as hits based on the OD450 readout of the assay. The best of the hits in this analysis were then subject to titration binding studies, i.e., titration of compounds in the same competition assay to estimate the IC50 value.

HeLa cells [3] = test: WST-1 cytotoxicity assay, HeLa; type: cell-based; conditions: 60 μM, HPV-positive cervical cancer cell line
Procedure: (§2) To determine the cytotoxicity of the compound 7291-0042, drug toxicity studies were performed in HPV-positive (E6 transformed) cervical cancer cell lines SiHa and HeLa and HPV-negative cervical cancer cell line […]. […] and SiHa cells were seeded onto a 12-well plate, allowed to adhere and grown to 10,000 cells per well. HeLa cells were seeded, allowed to adhere and grown to 5,000 cells per well. 100 μl of compound 7291-0042 at a concentration of 60 μM or DMSO was added to the cells 24 hours after plating. Cytotoxicity of the cells was assessed by the WST-1 calorimetric assay. In brief, the calorimetric assay is based on the cleavage of the tetrazolium salt WST-1 to a formazan-class dye by mitochondrial succinate-tetrazolium reductase in viable cells. As the cells proliferate, more WST-1 is converted to the formazan product. The quantity of formazan dye is directly related to the number of metabolically active cells, and can be quantified by measuring the absorbance at 420-480 nm (Amax 450 nm) in a multiwell plate reader.

C33a cells [4] = test: WST-1 cytotoxicity assay, C33a; type: cell-based; conditions: 60 μM, HPV-negative cervical cancer cell line
Procedure: as §2

SiHa cells = test: WST-1 cytotoxicity assay, SiHa; type: cell-based; conditions: 60 μM, HPV-positive cervical cancer cell line
Procedure: as §2

HeLa cells [5] = test: TUNEL apoptosis assay, HeLa; type: cell-based; conditions: 120 M (so in the source), 48 hours, flow cytometry
Procedure: as §1

3Y1 pBlast-E6-16 cells [6] = test: cell proliferation assay; type: cell-based, rat; conditions: 40 μM; compared with 3Y1 pBlast E6-16 ΔPL and 3Y1 pBlast
Procedure: Compound 7291-0042 was further analyzed for its ability to block the development of other cancerous characteristics in cells by a cell proliferation assay. The three cell lines described in the Example 2 were seeded onto a 12-well plate, and allowed to adhere and grow to confluent (about 24 hours) in EMEM media with 10% FBS and non-essential amino acids. 100 μl of compound 7291-0042 at concentrations 0 μM, 20 μM, 40 μM, and 80 μM was applied to the cells. The cells were measured at 24, 48, 72 and 96 hours after addition of the compound.

3Y1 pBlast-E6-16 cells [7] = test: cell migration assay (96-well filter plate); type: cell-based, rat; conditions: 40 μM, 24 hours, OD560; compared with 3Y1 pBlast E6-16 ΔPL cells
Procedure: The effect of compound 7291-0042 on the rate of cell migration and proliferation was determined on three different cell lines, 3Y1 pBlast, 3Y1 pBlast-E6-16 and 3Y1 pBlast E6-16 ΔPL.
Plasmid constructs of HPV E6-16 (wild type) and HPV E6-16 ΔPL were generated using the vector pBlast (InvivoGen, Toulouse, France). Recombinant plasmids were generated by recombinant DNA cloning methods known in the art.
These constructs were transfected into rat 3Y1 primary cells using the LipofectAMINE™ 2000 Reagent (Invitrogen Cat#11668-027) and accompanying protocol. pBlast without insert was transfected as a negative control. Cells were incubated at 37° in RPMI media with non-essential amino acids, 10% FBS, and 1 ug/mL […] until confluent (about 4 days).
Each of the three transfected cell lines were seeded onto a 96-well filter plate with a feeder tray and lid in RPMI media with a gradient of 0.5% to 10% FBS and non-essential amino acids. Three different treatments were applied to the cell lines. The cells were treated with either 40 μM or 60 μM of the compound 7291-0042, or DMSO. […] The undersides of the filters were left uncoated. […] Cell migration through the membrane was quantified by staining the cells that attach to the lower side of the membrane with a colorometric dye at OD560 after 24 hours with a microplate reader.

E6 protein (HPV18-E6) = test: E6 oncoprotein expression by Western blot in HeLa cells; type: cell-based; conditions: 60-120 μM, 24 hours, vs DMSO control and untreated cells
Procedure: To determine whether the compound 7291-0042 has an effect on E6 protein expression, cervical cancer cell line HeLa was used. HeLa cells were seeded, allowed to adhere and grown to 0.5×10^6 cells per well. Compound 7291-0042 at a concentration of 60 μM, 80 μM, 100 μM, 120 μM, or DMSO was added to the cells 24 hours after plating and incubated for 24 hours. Cells that were untreated served as an additional control. Western blot was performed to determine the relative amounts of the E6 protein present in the different samples. Briefly, the cells were homogenized in a lysate buffer and the protein samples were separated using SDS-PAGE and transferred to a membrane for detection. The membrane was incubated with an anti-HPV18-E6 antibody, labeled with a secondary antibody-enzyme conjugate and detected. To ensure that the amount of protein loaded for each sample was similar, the membrane was stripped and labeled with an antibody that recognizes a protein encoding a housekeeping gene. For this experiment, an antibody against glyceraldehyde-3-phosphate dehydrogenase (GAPDH) was used.

[8] = tested on: p53 tumor suppressor protein; test: p53 protein expression by immunocytochemistry in HeLa cells; type: cell-based; conditions: 80-120 μM, 24 hours, vs DMSO control
Procedure: To determine whether the compound 7291-0042 has an effect on p53 protein expression, cervical cancer cell line HeLa was used. HeLa cells were seeded, allowed to adhere and grown to 0.5×10^6 cells per well. 1 ml of compound 7291-0042 at a concentration of 80 μM, 100 μM, 120 μM, or DMSO was added to the cells 24 hours after plating and incubated for 24 hours. Immunocytochemistry with anti-p53 monoclonal antibody was performed to determine the relative amounts of the p53 protein present in the different cell samples.

`CCc1cccc2c(C(c3ccccc3OCC(=O)O)c3c[nH]c4c(CC)cccc34)c[nH]c12` [7291-0042] was tested, and the “apoptotic cells, C33A” value (C33a cells [1]) was 4%, the “specificity of disruption of the interaction between HPV E6 protein and MAGI-1 PDZ1” value [2] was “greatest specificity” and the “cytotoxicity, HeLa cells” value (HeLa cells [3]) was “selectively killed”. The “cytotoxicity, C33a cells” value (C33a cells [4]) was “remained viable”, the “cytotoxicity, SiHa cells” value (SiHa cells) was “selectively killed” and the “apoptotic cells, HeLa” value (HeLa cells [5]) was 20%. The “rate of cell proliferation” value (3Y1 pBlast-E6-16 cells [6]) was “restored baseline rate of cell proliferation”, the “rate of cell migration” value (3Y1 pBlast-E6-16 cells [7]) was “restored baseline cell migration” and the “amount of E6 onco protein” value (E6 protein (HPV18-E6)) was “decreased”. The “amount of p53 tumor suppressor protein” value [8] was “increased”.
